From patent publication US6916812B2, “Alpha-aminoamide derivatives as melanocortin agonists” (Bristol-Myers Squibb Company, priority 2001, dated 2005)

Biological target: T1, cloned human MC4R (Homo sapiens, UniProt P32245)
T1 construct: made in house; host or cells: Hi5 insect cells (baculovirus infection); membrane preparation
Experiment: Membrane binding assay: competitive inhibition of [125I]NDP-α-MSH binding
Conditions: for inhibition at 10 µM / Displacement Rate (%) (at 10 μM): [125I]NDP-α-MSH displacement; for inhibition at 10 µM: read-out: Displacement Rate (%) (at 10 μM); for IC50: read-out: MC4R IC50

T1 sequence (P32245 whole entry): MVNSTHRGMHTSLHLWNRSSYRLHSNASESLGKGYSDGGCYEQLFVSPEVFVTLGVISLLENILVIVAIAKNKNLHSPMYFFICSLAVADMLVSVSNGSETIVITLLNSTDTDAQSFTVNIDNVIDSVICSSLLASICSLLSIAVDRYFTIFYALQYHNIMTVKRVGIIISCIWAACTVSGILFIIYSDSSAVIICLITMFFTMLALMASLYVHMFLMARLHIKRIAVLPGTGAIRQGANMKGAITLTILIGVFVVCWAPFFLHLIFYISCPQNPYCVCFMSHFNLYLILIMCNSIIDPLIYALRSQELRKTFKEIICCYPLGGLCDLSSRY

| SMILES | inhibition at 10 µM [%] | IC50 [µM] | Displacement Rate (%) (at 10 μM) |
| --- | --- | --- | --- |
| COc1cc(CN2CCN(C(=O)[C@@H](N)Cc3ccc(OCc4ccccc4)cc3)CC2)ccc1OCc1ccc([N+](=O)[O-])cc1 [Example 150] | 35 to 70 | 1.5 to 3 |  |
| N[C@@H](Cc1ccc(OCc2ccccc2)cc1)C(=O)N1CCN(Cc2ccco2)CC1 [Example 151] | 35 to 70 | > 3 |  |
| N[C@@H](Cc1ccc(OCc2ccccc2)cc1)C(=O)N1CCN(Cc2cccc([N+](=O)[O-])c2)CC1 [Example 152] | 35 to 70 | > 3 |  |
| N[C@@H](Cc1ccc(OCc2ccccc2)cc1)C(=O)N1CCN(Cc2ccc(F)cc2F)CC1 [Example 153] | 35 to 70 | > 3 |  |
| N[C@@H](Cc1ccc(OCc2ccccc2)cc1)C(=O)N1CCN(Cc2cc3c(cc2[N+](=O)[O-])OCO3)CC1 [Example 154] | 35 to 70 | > 3 |  |
| N[C@@H](Cc1ccc(OCc2ccccc2)cc1)C(=O)N1CCN(C2CCN(Cc3ccccc3)CC2)CC1 [Example 155] | 35 to 70 | > 3 |  |
| N[C@@H](Cc1ccc(OCc2ccccc2)cc1)C(=O)N1CCN(Cc2ccc3c(c2)OCCO3)CC1 [Example 156] | 35 to 70 | > 3 |  |
| CC(c1ccccc1)N1CCN(C(=O)[C@@H](N)Cc2ccc(OCc3ccccc3)cc2)CC1 (some centres unmarked) [Example 157] | 35 to 70 | > 3 |  |
| N[C@@H](Cc1ccc(OCc2ccccc2)cc1)C(=O)N1CCN(C2CCCC2)CC1 [Example 158] | 35 to 70 | > 3 |  |
| CN[C@@H](Cc1ccc(OCc2ccccc2)cc1)C(=O)N1CCN(Cc2cccc(Cl)c2Cl)CC1 [Example 165] |  | < 1.5 |  |
| CCN[C@@H](Cc1ccc(OCc2ccccc2)cc1)C(=O)N1CCN(Cc2cccc(Cl)c2Cl)CC1 [Example 166] | 91 to 100 | < 1.5 |  |
| CCCN[C@@H](Cc1ccc(OCc2ccccc2)cc1)C(=O)N1CCN(Cc2cccc(Cl)c2Cl)CC1 [Example 167] | 91 to 100 | < 1.5 |  |
| CC(C)N[C@@H](Cc1ccc(OCc2ccccc2)cc1)C(=O)N1CCN(Cc2cccc(Cl)c2Cl)CC1 [Example 168] | 71 to 90 | < 1.5 |  |
| CCCCN[C@@H](Cc1ccc(OCc2ccccc2)cc1)C(=O)N1CCN(Cc2cccc(Cl)c2Cl)CC1 [Example 169] | 91 to 100 | < 1.5 |  |
| O=C([C@H](Cc1ccc(OCc2ccccc2)cc1)NCc1ccccc1)N1CCN(Cc2cccc(Cl)c2Cl)CC1 [Example 170] | 71 to 90 | > 3 |  |
| O=C([C@H](Cc1ccc(OCc2ccccc2)cc1)NCCc1ccccc1)N1CCN(Cc2cccc(Cl)c2Cl)CC1 [Example 171] | 71 to 90 | > 3 |  |
| O=C([C@H](Cc1ccc(OCc2ccccc2)cc1)NCCN1CCOCC1)N1CCN(Cc2cccc(Cl)c2Cl)CC1 [Example 172] | 71 to 90 | 1.5 to 3 |  |
| O=C([C@H](Cc1ccc(OCc2ccccc2)cc1)NCCCN1CCOCC1)N1CCN(Cc2cccc(Cl)c2Cl)CC1 [Example 173] | 91 to 100 | < 1.5 |  |
| CN(C)CCCN[C@@H](Cc1ccc(OCc2ccccc2)cc1)C(=O)N1CCN(Cc2cccc(Cl)c2Cl)CC1 [Example 174] | 91 to 100 | < 1.5 |  |
| CN(C)CCN[C@@H](Cc1ccc(OCc2ccccc2)cc1)C(=O)N1CCN(Cc2cccc(Cl)c2Cl)CC1 [Example 175] | 91 to 100 | < 1.5 |  |
| O=C([C@H](Cc1ccc(OCc2ccccc2)cc1)NCCN1CCCCC1)N1CCN(Cc2cccc(Cl)c2Cl)CC1 [Example 176] | 91 to 100 | < 1.5 |  |
| N[C@@H](Cc1ccc(OCc2ccccc2)cc1)C(=O)N1CCN(Cc2cccc(Cl)c2Cl)CC1 [Example 178] |  | < 1.5 | +++ (+++ = 91-100) |
| N[C@@H](Cc1ccc(OCc2ccccc2Br)cc1)C(=O)N1CCN(Cc2cccc(Cl)c2Cl)CC1 [Example 179] |  | < 1.5 | +++ (+++ = 91-100) |
| N[C@@H](Cc1ccc(OCc2cccc(F)c2)cc1)C(=O)N1CCN(Cc2cccc(Cl)c2Cl)CC1 [Example 180] |  | < 1.5 | +++ (+++ = 91-100) |
| N[C@@H](Cc1ccc(OCc2ccc(C(F)(F)F)cc2)cc1)C(=O)N1CCN(Cc2cccc(Cl)c2Cl)CC1 [Example 181] |  | < 1.5 | +++ (+++ = 91-100) |
| N[C@@H](Cc1ccc(OCc2ccccc2C(F)(F)F)cc1)C(=O)N1CCN(Cc2cccc(Cl)c2Cl)CC1 [Example 182] |  | < 1.5 | +++ (+++ = 91-100) |
| N[C@@H](Cc1ccc(OCc2ccc(Cl)cc2)cc1)C(=O)N1CCN(Cc2cccc(Cl)c2Cl)CC1 [Example 183] |  | < 1.5 | +++ (+++ = 91-100) |

| SMILES | inhibition at 10 µM [%] | IC50 [µM] | Displacement Rate (%) (at 10 μM) |
| --- | --- | --- | --- |
| CCCCc1ccc(COc2ccc(C[C@H](N)C(=O)N3CCN(Cc4cccc(Cl)c4Cl)CC3)cc2)cc1 [Example 184] |  | < 1.5 | +++ (+++ = 91-100) |
| N[C@@H](Cc1ccc(OCc2c(F)c(F)c(F)c(F)c2F)cc1)C(=O)N1CCN(Cc2cccc(Cl)c2Cl)CC1 [Example 185] |  | < 1.5 | +++ (+++ = 91-100) |
| N[C@@H](Cc1ccc(OCc2ccc(Br)cc2)cc1)C(=O)N1CCN(Cc2cccc(Cl)c2Cl)CC1 [Example 186] |  | < 1.5 | +++ (+++ = 91-100) |
| N[C@@H](Cc1ccc(OCc2cccc(C(F)(F)F)c2)cc1)C(=O)N1CCN(Cc2cccc(Cl)c2Cl)CC1 [Example 187] |  | 1.5 to 3 | +++ (+++ = 91-100) |
| N[C@@H](Cc1ccc(OCc2ccc(F)cc2)cc1)C(=O)N1CCN(Cc2cccc(Cl)c2Cl)CC1 [Example 188] |  | < 1.5 | +++ (+++ = 91-100) |
| N[C@@H](Cc1ccc(OCc2cc(Cl)cc(Cl)c2)cc1)C(=O)N1CCN(Cc2cccc(Cl)c2Cl)CC1 [Example 189] |  | < 1.5 | +++ (+++ = 91-100) |
| Cc1cc(C)cc(COc2ccc(C[C@H](N)C(=O)N3CCN(Cc4cccc(Cl)c4Cl)CC3)cc2)c1 [Example 190] |  | 1.5 to 3 | +++ (+++ = 91-100) |
| Cc1ccc(COc2ccc(C[C@H](N)C(=O)N3CCN(Cc4cccc(Cl)c4Cl)CC3)cc2)cc1C [Example 191] |  | < 1.5 | +++ (+++ = 91-100) |
| Cc1ccc(COc2ccc(C[C@H](N)C(=O)N3CCN(Cc4cccc(Cl)c4Cl)CC3)cc2)cc1 [Example 192] |  | < 1.5 | +++ (+++ = 91-100) |
| N[C@@H](Cc1ccc(OCc2cccc(Oc3ccccc3)c2)cc1)C(=O)N1CCN(Cc2cccc(Cl)c2Cl)CC1 [Example 193] |  | < 1.5 | +++ (+++ = 91-100) |
| COc1cc(COc2ccc(C[C@H](N)C(=O)N3CCN(Cc4cccc(Cl)c4Cl)CC3)cc2)cc(OC)c1 [Example 194] |  | 1.5 to 3 | +++ (+++ = 91-100) |
| CC(C)c1ccc(COc2ccc(C[C@H](N)C(=O)N3CCN(Cc4cccc(Cl)c4Cl)CC3)cc2)cc1 [Example 195] |  | < 1.5 | +++ (+++ = 91-100) |
| N[C@@H](Cc1ccc(OCc2ccc(F)cc2F)cc1)C(=O)N1CCN(Cc2cccc(Cl)c2Cl)CC1 [Example 196] |  | < 1.5 | +++ (+++ = 91-100) |
| N[C@@H](Cc1ccc(OCc2cccc(Br)c2)cc1)C(=O)N1CCN(Cc2cccc(Cl)c2Cl)CC1 [Example 197] |  | < 1.5 | +++ (+++ = 91-100) |
| N[C@@H](Cc1ccc(OCc2ccc(-c3ccccc3)cc2)cc1)C(=O)N1CCN(Cc2cccc(Cl)c2Cl)CC1 [Example 198] |  | < 1.5 | +++ (+++ = 91-100) |
| N[C@@H](Cc1ccc(OCc2cc(C(F)(F)F)cc(C(F)(F)F)c2)cc1)C(=O)N1CCN(Cc2cccc(Cl)c2Cl)CC1 [Example 199] |  | 1.5 to 3 | +++ (+++ = 91-100) |
| N[C@@H](Cc1ccc(OCc2ccc(Cl)cc2Cl)cc1)C(=O)N1CCN(Cc2cccc(Cl)c2Cl)CC1 [Example 200] |  | < 1.5 | +++ (+++ = 91-100) |
| CC(C)(C)c1ccc(COc2ccc(C[C@H](N)C(=O)N3CCN(Cc4cccc(Cl)c4Cl)CC3)cc2)cc1 [Example 201] |  | < 1.5 | +++ (+++ = 91-100) |
| Cc1ccc(C)c(COc2ccc(C[C@H](N)C(=O)N3CCN(Cc4cccc(Cl)c4Cl)CC3)cc2)c1 [Example 202] |  | 1.5 to 3 | +++ (+++ = 91-100) |
| COc1cccc(COc2ccc(C[C@H](N)C(=O)N3CCN(Cc4cccc(Cl)c4Cl)CC3)cc2)c1 [Example 203] |  | 1.5 to 3 | +++ (+++ = 91-100) |
| N[C@@H](Cc1ccc(OCc2ccc(Cl)c(Cl)c2)cc1)C(=O)N1CCN(Cc2cccc(Cl)c2Cl)CC1 [Example 204] |  | < 1.5 | +++ (+++ = 91-100) |
| N[C@@H](Cc1ccc(OCc2c(F)cccc2F)cc1)C(=O)N1CCN(Cc2cccc(Cl)c2Cl)CC1 [Example 205] |  | 1.5 to 3 | +++ (+++ = 91-100) |
| N[C@@H](Cc1ccc(OCc2cccc(OCc3ccccc3)c2)cc1)C(=O)N1CCN(Cc2cccc(Cl)c2Cl)CC1 [Example 206] |  | < 1.5 | +++ (+++ = 91-100) |
| N[C@@H](Cc1ccc(OCc2ccc(OCc3ccccc3)cc2)cc1)C(=O)N1CCN(Cc2cccc(Cl)c2Cl)CC1 [Example 208] |  | 1.5 to 3 | +++ (+++ = 91-100) |
| CCOc1ccc(COc2ccc(C[C@H](N)C(=O)N3CCN(Cc4cccc(Cl)c4Cl)CC3)cc2)cc1 [Example 209] | 91 to 100 | 1.5 to 3 |  |
| N[C@@H](Cc1ccc(OCc2ccccc2Cl)cc1)C(=O)N1CCN(Cc2cccc(Cl)c2Cl)CC1 [Example 210] |  | 1.5 to 3 | +++ (+++ = 91-100) |
| N[C@@H](Cc1ccc(OCc2cc(Cl)ccc2Cl)cc1)C(=O)N1CCN(Cc2cccc(Cl)c2Cl)CC1 [Example 212] |  | < 1.5 | +++ (+++ = 91-100) |
